Data as given in ChEMBL document CHEMBL1201862, “PubChem BioAssay data set” (2004).
The source made the active and inactive calls.

Legend:
[1] = target: Phosphoethanolamine/phosphocholine phosphatase (Homo sapiens, UniProt Q8TCT1); test: SAR assay for compounds that inhibit PHOSPHO1. [Related pubchem assays (depositor defined):AID1545, AID1565, AID1574]
[2] = target: DNA dC->dU-editing enzyme APOBEC-3G (Homo sapiens, UniProt Q9HC16); test: Dose Response confirmation of small molecule APOBEC3G DNA Deaminase Inhibitors via a fluorescence-based single-stranded DNA deaminase assay. [Related pubchem assays (depositor defined):AID493012, AID493028]; assay type: functional
DNA dC->dU-editing enzyme APOBEC-3G, sequence (Q9HC16 whole entry): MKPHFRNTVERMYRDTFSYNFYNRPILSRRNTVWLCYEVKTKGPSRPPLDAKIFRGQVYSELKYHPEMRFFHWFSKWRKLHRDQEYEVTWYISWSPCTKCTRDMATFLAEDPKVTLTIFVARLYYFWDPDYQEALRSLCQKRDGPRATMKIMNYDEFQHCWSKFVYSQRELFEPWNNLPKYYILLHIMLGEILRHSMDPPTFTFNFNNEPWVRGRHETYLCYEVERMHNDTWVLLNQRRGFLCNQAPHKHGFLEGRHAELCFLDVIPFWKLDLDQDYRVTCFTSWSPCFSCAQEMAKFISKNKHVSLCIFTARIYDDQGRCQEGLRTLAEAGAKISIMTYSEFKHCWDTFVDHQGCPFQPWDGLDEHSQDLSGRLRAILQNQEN

[3] = target: T1, Alkaline phosphatase, tissue-nonspecific isozyme (Homo sapiens, UniProt P05186); test: human TNAP enzyme inhibitors, SAR follow-up, biochemical, luminescent, dose response (AID 1056)
T1 sequence (P05186 whole entry): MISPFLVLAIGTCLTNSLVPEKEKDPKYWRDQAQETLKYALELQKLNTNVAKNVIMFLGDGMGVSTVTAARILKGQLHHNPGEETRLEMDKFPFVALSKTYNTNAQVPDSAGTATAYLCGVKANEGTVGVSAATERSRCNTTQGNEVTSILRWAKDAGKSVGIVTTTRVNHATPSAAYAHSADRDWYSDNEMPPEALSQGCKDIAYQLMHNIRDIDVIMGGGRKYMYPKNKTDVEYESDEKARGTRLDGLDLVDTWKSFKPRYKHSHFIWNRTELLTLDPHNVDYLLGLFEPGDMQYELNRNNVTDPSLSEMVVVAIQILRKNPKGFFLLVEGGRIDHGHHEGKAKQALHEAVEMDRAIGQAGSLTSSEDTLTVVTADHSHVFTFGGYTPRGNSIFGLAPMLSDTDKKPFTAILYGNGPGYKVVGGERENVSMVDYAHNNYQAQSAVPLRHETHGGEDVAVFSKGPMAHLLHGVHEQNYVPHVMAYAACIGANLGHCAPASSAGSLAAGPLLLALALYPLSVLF

[4] = Fluorescence-based cell-based high throughput dose response assay for inhibitors of the interaction of nucleotide-binding oligomerization domain containing 2 (NOD2) and the receptor-interacting serine-threonine kinase 2 (RIPK2).; assay type: functional; settings: Homo sapiens
Beta Lactamase = Beta Lactamase (Pseudomonas aeruginosa, UniProt Q932Y6); test: beta-lactamase reporter inhibitor potency, dose response, artefact control for NOD2-RIPK2 interaction inhibitor project, BLA reporter cells, FRET fluorescence (AID 651552); assay type: functional, cell-based
Beta Lactamase, sequence (Q932Y6 whole entry): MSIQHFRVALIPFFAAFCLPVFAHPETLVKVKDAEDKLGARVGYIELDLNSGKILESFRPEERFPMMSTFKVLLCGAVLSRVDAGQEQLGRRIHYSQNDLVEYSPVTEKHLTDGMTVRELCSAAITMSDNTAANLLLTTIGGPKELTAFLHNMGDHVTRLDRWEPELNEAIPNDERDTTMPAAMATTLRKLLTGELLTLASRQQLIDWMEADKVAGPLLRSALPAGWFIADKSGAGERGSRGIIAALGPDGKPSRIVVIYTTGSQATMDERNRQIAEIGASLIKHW

[5] = HeLa cell cytotoxicity, dose response, cytotoxicity control for MgcRacGAP inhibitor project (AID 624300); assay type: functional
[6] = target: T2, Rac GTPase-activating protein 1 (Homo sapiens, UniProt Q9H0H5); test: MgcRacGAP GTPase-activating activity inhibitors, confirmation, biochemical, ADP Hunter fluorescence, primary and confirmatory (AID 624330); assay type: functional
T2 sequence (Q9H0H5 whole entry): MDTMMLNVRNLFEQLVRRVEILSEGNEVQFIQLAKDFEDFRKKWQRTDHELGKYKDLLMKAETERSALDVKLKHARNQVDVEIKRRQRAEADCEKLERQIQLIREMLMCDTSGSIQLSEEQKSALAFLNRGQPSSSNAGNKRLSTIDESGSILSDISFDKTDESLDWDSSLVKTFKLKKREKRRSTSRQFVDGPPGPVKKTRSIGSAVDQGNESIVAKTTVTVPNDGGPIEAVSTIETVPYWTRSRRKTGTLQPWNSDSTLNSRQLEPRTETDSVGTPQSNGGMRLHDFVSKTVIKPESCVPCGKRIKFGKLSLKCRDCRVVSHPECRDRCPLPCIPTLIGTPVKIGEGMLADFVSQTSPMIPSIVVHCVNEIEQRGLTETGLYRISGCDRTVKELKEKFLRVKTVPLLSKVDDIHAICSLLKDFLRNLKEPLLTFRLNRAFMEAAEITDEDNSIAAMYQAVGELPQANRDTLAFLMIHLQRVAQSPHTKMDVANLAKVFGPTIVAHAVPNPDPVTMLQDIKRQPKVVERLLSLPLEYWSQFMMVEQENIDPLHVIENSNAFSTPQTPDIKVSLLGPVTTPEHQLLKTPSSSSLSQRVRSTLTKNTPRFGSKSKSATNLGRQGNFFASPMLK

[7] = LGR2 antagonists, dose response, cell-based, HEK293, CRE-luciferase reporter, cherry pick, set 2 (AID 743343); assay type: functional;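 further: transfected cells were stimulated with diluted bursicon conditioned medium after compound addition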
[8] = MC4R antagonists, dose response, counter-screen for LGR2 antagonist project, cell-based, plate reader, cherry pick (AID 743444); assay type: functional;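 further: transfected HEK 293 cells stimulated with alpha-MSH peptide; potency of inhibitors of the alpha-MSH evoked signal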
[9] = Luminescence Cell-Based Dose Response HTS to Identify Activators of Luciferase Translation or Activity in H4 […] Cells. [Related pubchem assays: 1829 (Project Summary), 1814 (Primary HTS)]; assay type: functional
[10] = target: Alkaline phosphatase, placental type (Homo sapiens, UniProt P05187); test: PLAP enzyme inhibitors, confirmation, biochemical, luminescence (AID 1512); assay type: functional
Alkaline phosphatase, placental type, sequence (P05187 whole entry): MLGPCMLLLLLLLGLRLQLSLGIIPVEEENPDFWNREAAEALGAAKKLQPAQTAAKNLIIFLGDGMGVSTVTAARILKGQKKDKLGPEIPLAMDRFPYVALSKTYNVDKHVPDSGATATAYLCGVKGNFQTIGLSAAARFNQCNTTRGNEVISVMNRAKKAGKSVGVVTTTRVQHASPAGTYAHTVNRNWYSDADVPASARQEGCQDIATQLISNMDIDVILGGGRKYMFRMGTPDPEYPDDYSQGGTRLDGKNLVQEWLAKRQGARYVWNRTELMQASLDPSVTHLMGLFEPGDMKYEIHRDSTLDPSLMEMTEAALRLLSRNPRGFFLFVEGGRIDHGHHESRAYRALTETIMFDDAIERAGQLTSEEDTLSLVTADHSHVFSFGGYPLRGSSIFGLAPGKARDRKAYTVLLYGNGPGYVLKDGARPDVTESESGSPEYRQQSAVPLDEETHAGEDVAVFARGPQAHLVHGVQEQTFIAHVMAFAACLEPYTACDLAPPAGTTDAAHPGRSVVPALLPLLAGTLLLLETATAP

[11] = target: G-protein coupled receptor 55 (Homo sapiens, UniProt Q9Y2T6); test: GPR55 agonists via beta-arrestin recruitment, primary screen, imaging, U2OS cells, beta-arrestin-GFP redistribution (AID 1961); assay type: functional
G-protein coupled receptor 55, sequence (Q9Y2T6 whole entry): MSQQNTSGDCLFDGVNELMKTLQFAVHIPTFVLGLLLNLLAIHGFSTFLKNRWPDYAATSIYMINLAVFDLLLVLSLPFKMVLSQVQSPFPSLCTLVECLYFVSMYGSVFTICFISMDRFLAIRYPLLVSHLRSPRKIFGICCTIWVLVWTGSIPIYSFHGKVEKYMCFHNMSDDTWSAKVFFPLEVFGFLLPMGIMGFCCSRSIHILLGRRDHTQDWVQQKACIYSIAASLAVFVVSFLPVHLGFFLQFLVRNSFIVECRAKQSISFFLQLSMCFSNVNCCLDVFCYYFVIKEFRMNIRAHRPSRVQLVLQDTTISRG

[12] = test system: Streptococcus sp. 'group A'; test: growth inhibition of control SK(-) GAS strain, dose response, counter-screen for streptokinase expression inhibitor project, luminescence, kanamycin, BacTiterGlo, confirmation (AID 1900); assay type: functional, organism-based
Streptokinase A = target: T3, Streptokinase A (Streptococcus pyogenes serotype M1, UniProt P10520); test: S. pyogenes streptokinase expression inhibitors, potency, dose response, plasminogen activation absorbance, OD405 (AID 1914); assay type: functional, Streptococcus pyogenes M1 GAS;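 further: secreted streptokinase activity via plasminogen activation per viability signal from cell pellet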
T3 sequence (P10520 whole entry): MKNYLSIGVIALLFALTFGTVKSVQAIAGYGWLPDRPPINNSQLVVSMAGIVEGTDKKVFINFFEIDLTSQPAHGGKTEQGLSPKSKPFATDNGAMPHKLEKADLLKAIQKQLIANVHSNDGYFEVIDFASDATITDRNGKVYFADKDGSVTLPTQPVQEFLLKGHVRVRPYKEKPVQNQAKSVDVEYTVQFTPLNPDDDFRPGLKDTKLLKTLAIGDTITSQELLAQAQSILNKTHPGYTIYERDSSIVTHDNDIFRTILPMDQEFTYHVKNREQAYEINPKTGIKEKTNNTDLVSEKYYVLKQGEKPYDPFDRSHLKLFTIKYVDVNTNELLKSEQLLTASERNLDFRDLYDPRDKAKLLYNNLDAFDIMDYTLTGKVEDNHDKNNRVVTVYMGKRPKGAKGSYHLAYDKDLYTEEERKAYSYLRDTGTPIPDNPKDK

Streptococcus = test: Group A Streptococcus viability loss, dose response, counter-screen for streptokinase expression inhibitor project, luminescence, BacTiterGlo (AID 1915); assay type: functional, organism-based;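 further: potency for reduction of bacterial viability or growth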
[13] = THP-1 cell cytotoxicity, dose response, cytotoxicity control for non-replicating M. tuberculosis project (AID 489025); assay type: functional
[14] = Vero E6 cell cytotoxicity, dose response, cytotoxicity control for non-replicating M. tuberculosis project, secondary assay (AID 492998); assay type: functional, VeroE6; settings: Vero C1008
cells = assay type: functional

Phosphoethanolamine/phosphocholine phosphatase, sequence (Q8TCT1 whole entry): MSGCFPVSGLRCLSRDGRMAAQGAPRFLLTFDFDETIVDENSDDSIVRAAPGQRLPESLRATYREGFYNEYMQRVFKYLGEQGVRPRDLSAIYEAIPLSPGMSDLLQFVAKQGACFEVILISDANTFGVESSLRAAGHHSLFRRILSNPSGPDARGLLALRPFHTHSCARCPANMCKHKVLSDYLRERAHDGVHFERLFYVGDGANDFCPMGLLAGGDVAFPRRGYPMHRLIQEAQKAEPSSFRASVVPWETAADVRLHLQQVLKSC

COc1ccc(-n2sc3ccc(F)cc3c2=O)cc1
IC50 [1]: 6.67 µM (inactive)
IC50 [2]: 10.8 µM (active)
IC50 [3]: > 100 µM (inactive)
IC50 [4]: 5.42 µM (active)
IC50 (Beta Lactamase): 19.9 µM (inactive)
CC50 [5]: 100 µM (active)
IC50 [6]: 45.2 µM (active)
AC50 [7]: 6.6 µM (active)
AC50 [8]: 5.92 µM (active)

Clc1ccccc1-c1n[nH]c(-c2ccccc2)n1
EC50 [9]: 0.348 µM (active)
IC50 [10]: > 100 µM (inactive)
IC50 [3]: 0.641 µM (active)

CC(C)(C)OC(=O)CN1C(=O)S/C(=C\c2ccc(-c3cccc(C(=O)O)c3)o2)C1=O
EC50 [11]: 4.23 µM (active)

COc1ccc(C(=O)Nc2nnc(-c3ccccc3)o2)cc1OC
EC50 [12]: 6.46 µM (active)
EC50 (Streptokinase A): > 150 µM (not active)
EC50 (Streptococcus): > 150 µM (not active)
CC50 [13]: > 40 µM (active)
CC50 [14]: > 20 µM (active)
IC50 (cells): 17.2 µM (active)
